Substitutions are numbered along the chain they refer to.
Key:
[1] = biological target: T1, wild-type human (WT) Slack (Homo sapiens, UniProt Q5JUK3); assay: Tl+ flux assay in HEK-293 cells stably expressing WT Slack; type: cell-based; conditions: for Slack activity profile in words: running text and footnotes, WT Slack Tl+ flux; for IC50 / EC50 (result in words): Table 3, no mode assigned
T1 sequence (Q5JUK3 1-1235 isoform Q5JUK3-3): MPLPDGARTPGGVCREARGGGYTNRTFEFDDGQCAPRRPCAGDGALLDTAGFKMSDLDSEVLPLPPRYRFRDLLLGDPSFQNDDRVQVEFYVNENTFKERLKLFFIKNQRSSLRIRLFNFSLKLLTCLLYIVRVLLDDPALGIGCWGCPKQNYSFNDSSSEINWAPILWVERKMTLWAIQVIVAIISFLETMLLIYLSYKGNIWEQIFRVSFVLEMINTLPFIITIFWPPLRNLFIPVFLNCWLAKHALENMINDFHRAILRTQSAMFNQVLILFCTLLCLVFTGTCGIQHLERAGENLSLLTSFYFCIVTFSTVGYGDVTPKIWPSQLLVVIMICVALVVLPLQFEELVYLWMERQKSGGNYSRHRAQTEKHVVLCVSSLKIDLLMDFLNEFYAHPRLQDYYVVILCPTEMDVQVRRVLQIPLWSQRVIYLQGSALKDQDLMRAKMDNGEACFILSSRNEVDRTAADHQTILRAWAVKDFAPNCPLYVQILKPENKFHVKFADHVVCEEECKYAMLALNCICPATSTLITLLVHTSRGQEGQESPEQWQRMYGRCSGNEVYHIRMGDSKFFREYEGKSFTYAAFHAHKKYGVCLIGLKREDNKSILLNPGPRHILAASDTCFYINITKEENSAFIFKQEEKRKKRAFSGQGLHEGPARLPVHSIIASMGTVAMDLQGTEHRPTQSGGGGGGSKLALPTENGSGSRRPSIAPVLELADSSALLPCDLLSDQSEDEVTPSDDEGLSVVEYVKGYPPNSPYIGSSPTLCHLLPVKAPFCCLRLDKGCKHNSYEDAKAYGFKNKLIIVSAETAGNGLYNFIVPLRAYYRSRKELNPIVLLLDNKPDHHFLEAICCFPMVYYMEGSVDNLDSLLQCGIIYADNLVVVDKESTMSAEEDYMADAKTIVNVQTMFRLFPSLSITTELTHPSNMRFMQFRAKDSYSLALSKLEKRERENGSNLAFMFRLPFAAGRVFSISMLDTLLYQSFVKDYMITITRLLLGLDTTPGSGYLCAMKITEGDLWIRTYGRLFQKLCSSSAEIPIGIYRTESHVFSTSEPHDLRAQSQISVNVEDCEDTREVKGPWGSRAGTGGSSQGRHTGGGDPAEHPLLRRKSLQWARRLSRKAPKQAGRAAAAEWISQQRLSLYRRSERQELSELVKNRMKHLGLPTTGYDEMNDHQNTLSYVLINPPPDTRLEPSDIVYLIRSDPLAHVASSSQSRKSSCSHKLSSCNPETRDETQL

mouse model of Kcnt1 GOF = conditions: orally available; cited from earlier work
Maxi-K (Slo1 α1/β3) = Maxi-K (Slo1 α1/β3) (Homo sapiens, UniProt Q12791); assay: Tl+ flux assay in HEK-293 cells expressing Maxi-K; type: cell-based; conditions: for Maxi-K inhibition in words / Maxi-K (Slo1 α1/β3) IC50: Tl+ flux; for Maxi-K (Slo1 α1/β3) Efficacy: 30 µM test compound, % of maximum response for paxilline; for Maxi-K (Slo1 α1/β3) IC50: CRC, HEK-293 expressing Maxi-K
[2] = system: cortical neuronal culture; conditions: overexcited, spontaneously firing cortical neuronal culture; cited from earlier work
A934T Slack = biological target: T2, A934T Slack (Homo sapiens, UniProt Q5JUK3, A915T); assay: Tl+ flux assay in HEK-293 cells expressing A934T Slack; conditions: Table 6; 30 µM test compound, % of maximum response for VU0606170
T2 sequence (Q5JUK3 1-1235 isoform Q5JUK3-3 A934T): T1 sequence (Q5JUK3 1-1235 isoform Q5JUK3-3) with A934T

[3] = system: human wild-type (WT) Slack channels; conditions: whole-cell patch clamp, HEK-293, human WT Slack; cited from earlier work

Sequence of Maxi-K (Slo1 α1/β3) (Q12791 whole entry, species assumed): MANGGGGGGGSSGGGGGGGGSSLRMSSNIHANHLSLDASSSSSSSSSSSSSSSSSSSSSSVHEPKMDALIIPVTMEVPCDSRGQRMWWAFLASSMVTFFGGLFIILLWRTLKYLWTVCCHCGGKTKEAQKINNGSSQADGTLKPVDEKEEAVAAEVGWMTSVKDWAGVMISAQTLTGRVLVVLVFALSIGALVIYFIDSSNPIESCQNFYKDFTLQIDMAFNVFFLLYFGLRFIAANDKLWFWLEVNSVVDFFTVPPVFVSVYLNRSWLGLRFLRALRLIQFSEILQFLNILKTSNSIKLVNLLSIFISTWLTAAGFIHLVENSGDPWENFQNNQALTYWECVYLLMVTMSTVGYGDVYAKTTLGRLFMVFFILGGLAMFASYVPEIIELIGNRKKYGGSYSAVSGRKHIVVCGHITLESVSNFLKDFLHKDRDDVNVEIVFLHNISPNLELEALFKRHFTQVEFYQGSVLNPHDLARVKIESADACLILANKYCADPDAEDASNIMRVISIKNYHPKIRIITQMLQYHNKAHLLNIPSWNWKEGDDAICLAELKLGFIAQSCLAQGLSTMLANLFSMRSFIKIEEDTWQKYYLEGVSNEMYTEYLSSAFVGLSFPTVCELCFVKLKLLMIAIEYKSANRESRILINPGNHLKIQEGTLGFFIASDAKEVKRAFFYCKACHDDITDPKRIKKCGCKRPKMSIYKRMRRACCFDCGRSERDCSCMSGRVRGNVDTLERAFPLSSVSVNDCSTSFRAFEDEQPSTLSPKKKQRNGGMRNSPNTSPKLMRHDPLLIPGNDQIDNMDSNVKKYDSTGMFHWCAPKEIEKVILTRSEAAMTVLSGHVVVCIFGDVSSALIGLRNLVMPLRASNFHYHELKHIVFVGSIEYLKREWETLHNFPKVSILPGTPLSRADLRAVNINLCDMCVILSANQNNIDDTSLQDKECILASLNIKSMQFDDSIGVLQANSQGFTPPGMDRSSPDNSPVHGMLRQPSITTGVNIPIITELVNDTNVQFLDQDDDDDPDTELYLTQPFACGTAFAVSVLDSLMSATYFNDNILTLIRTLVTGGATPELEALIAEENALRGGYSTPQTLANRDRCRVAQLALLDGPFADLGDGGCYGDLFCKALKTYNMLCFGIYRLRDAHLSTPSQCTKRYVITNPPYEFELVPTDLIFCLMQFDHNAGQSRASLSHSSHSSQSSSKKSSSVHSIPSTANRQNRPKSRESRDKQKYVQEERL
Sequence of Maxi-K (Slo1 α1/β3) (Q9NPA1 whole entry partner, species assumed): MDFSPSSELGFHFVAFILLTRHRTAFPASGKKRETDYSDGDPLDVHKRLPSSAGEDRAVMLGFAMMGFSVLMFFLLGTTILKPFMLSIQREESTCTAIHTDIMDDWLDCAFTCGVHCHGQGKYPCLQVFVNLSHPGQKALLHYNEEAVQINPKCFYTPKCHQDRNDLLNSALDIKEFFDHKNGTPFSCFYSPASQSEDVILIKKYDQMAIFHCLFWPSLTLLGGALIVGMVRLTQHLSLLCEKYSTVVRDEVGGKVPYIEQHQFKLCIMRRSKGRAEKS

Row | Structure (SMILES) | Slack activity profile in words [1] | other results
1 | COc1ccc(Cl)cc1NC(=O)CN1CCN(S(=O)(=O)N2CCN(S(=O)(=O)N3CCCCC3)CC2)CC1 [Compound 43] | – | IC50 / EC50 (result in words) [1]: inactive
2 | Cc1cccc(NC(=O)CN2CCN(S(=O)(=O)N3CCC(C)CC3)CC2)c1 [Compound 19] | mixed profile | –
3 | CC1CCN(S(=O)(=O)N2CCN(CC(=O)Nc3cc(Cl)ccc3Cl)CC2)CC1 [Compound 30] | not effective | –
4 | COc1cccc(NC(=O)CN2CCN(S(=O)(=O)N3CCC(C)CC3)CC2)c1 [Compound 22] | mixed profile | –
5 | Cc1ccccc1NC(=O)CN1CCN(S(=O)(=O)N2CCC(C)CC2)CC1 [Compound 18] | mixed profile | –
6 | COc1ccc(Cl)cc1NC(=O)CN1CCN(S(=O)(=O)N2CCN(S(=O)(=O)N3CCOCC3)CC2)CC1 [Compound 44] | – | IC50 / EC50 (result in words) [1]: inactive
7 | C[C@H](NC(=O)c1cc(C(F)(F)F)nn1C)c1nc(-c2ccnc(C(F)(F)F)c2)no1 [Compound 3] | – | EEG phenotype (mouse model of Kcnt1 GOF): normalizes the EEG phenotype
8 | COc1ccc(Cl)cc1NC(=O)CN(C)CCN(C)S(=O)(=O)N1CCC(C)CC1 [Compound 81] | retained inhibitory activity but exhibited reduced potency | –
9 | COc1ccc(Cl)cc1NC(=O)CN1CCN(S(=O)(=O)N2CCN(S(=O)(=O)c3ccc(C)cc3)CC2)CC1 [Compound 47] | – | IC50 / EC50 (result in words) [1]: inactive
10 | Cc1ccc(Cl)cc1NC(=O)CN1CCN(S(=O)(=O)N2CCC(C)CC2)CC1 [Compound 31] | not effective | –
11 | COc1ccc(Cl)cc1NC(=O)CN1CCN(S(=O)(=O)N2CCN(S(=O)(=O)C3CCCCC3)CC2)CC1 [Compound 45] | – | IC50 / EC50 (result in words) [1]: inactive
12 | COc1ccccc1NC(=O)CN1CCN(S(=O)(=O)N2CCC(C)CC2)CC1 [Compound 21] | maintained the inhibitory profile | –
13 | CC1CCN(S(=O)(=O)N2CCN(CC(=O)Nc3cc(Cl)ccc3F)CC2)CC1 [Compound 29] | not effective | –
14 | COc1ccc(Cl)cc1NC(=O)CN1CCN(S(=O)(=O)N2CCC(C)CC2)C[C@@H]1C [Compound 71] | well tolerated | –
15 | COc1ccc(Cl)cc1NC(=O)CN1CCN(S(=O)(=O)N2CCC(C)CC2)CC1 [Compound 4] | – | IC50 / EC50 (IC50, inhibitors) ([1]; Table 1, CRC, Tl+ flux, HEK-293 WT Slack, Mode Inh): 2.4 µM; Maxi-K (Slo1 α1/β3) Efficacy (Maxi-K (Slo1 α1/β3)): inactive; Maxi-K (Slo1 α1/β3) IC50 (Maxi-K (Slo1 α1/β3)): inactive; firing rate [2]: decreased the firing rate
16 | CC1CCN(S(=O)(=O)N2CCN(CC(=O)Nc3ccccc3Cl)CC2)CC1 [Compound 15] | mixed profile | –
17 | COc1ccc(Cl)cc1NC(=O)[C@H](C)N1CCN(S(=O)(=O)N2CCC(C(F)(F)F)CC2)CC1 [Compound 61] | – | Maxi-K (Slo1 α1/β3) Efficacy (Maxi-K (Slo1 α1/β3)): inactive; Maxi-K (Slo1 α1/β3) IC50 (Maxi-K (Slo1 α1/β3)): inactive; Maxi-K inhibition in words (Maxi-K (Slo1 α1/β3)): inactive
18 | COc1ccc(F)cc1NC(=O)CN1CCN(S(=O)(=O)N2CCC(C)CC2)CC1 [Compound 24] | – | A934T Efficacy (A934T Slack): 100%
19 | COc1ccc(C(F)(F)F)cc1NC(=O)CN1CCN(S(=O)(=O)N2CCC(C)CC2)CC1 [Compound 27] | – | Maxi-K inhibition in words (Maxi-K (Slo1 α1/β3)): weak inhibition
20 | Cc1cccc(CC(=O)Nc2cnn(-c3cccc(C(=O)NCc4ccccc4-n4cncn4)c3)c2)c1 [Compound 1] | – | IC50 [3]: 3.2 µM

The next lines start with results.

Row | Slack activity profile in words [1] | Structure (SMILES) | other results
21 | weak activators | COc1ccc(Cl)cc1NC(=O)N1CC2(CCN(S(=O)(=O)N3CCC(C)CC3)CC2)C1 [Compound 88] | –
22 | significantly reduced potency | COc1ccc(Cl)cc1NC(=O)CN1CCN(S(=O)(=O)N2CCC(C)CC2)[C@@H](C)C1 [Compound 68] | –
23 | weak activators | COc1ccc(Cl)cc1NC(=O)CN1CCN(S(=O)(=O)N2CCN(C(=O)N3CCCCC3)CC2)CC1 [Compound 51] | –
24 | equipotent to hit compound 4 | COc1ccc(Cl)cc1NC(=O)CN1CCN(S(=O)(=O)N2CCC(C)CC2)C[C@H]1C [Compound 87] | Maxi-K inhibition in words (Maxi-K (Slo1 α1/β3)): weak inhibition
25 | devoid of activity | COc1ccc(Cl)cc1NC(=O)N1C[C@@H]2CN(S(=O)(=O)N3CCC(C)CC3)C[C@@H]2C1 [Compound 91] | –
26 | weak inhibitor | CCCC1CCN(C(=O)N2CCN(S(=O)(=O)N3CCN(CC(=O)Nc4cc(Cl)ccc4OC)CC3)CC2)CC1 [Compound 52] | –
27 | weak activators | COc1ccc(Cl)cc1NC(=O)CN1CCN(S(=O)(=O)N2CCN(S(=O)(=O)N3CCC(F)(F)C3)CC2)CC1 [Compound 50] | –
28 | weak activators | COc1ccc(Cl)cc1NC(=O)CN1CCN(S(=O)(=O)N2CCN(C(=O)N3CCCCCC3)CC2)CC1 [Compound 55] | –
29 | significantly reduced potency | COc1ccc(Cl)cc1NC(=O)CN1CCN(S(=O)(=O)N2CCC(C)CC2)[C@H](C)C1 [Compound 86] | –
30 | moderately potent | COc1ccc(Cl)cc1NC(=O)N1CCCN(S(=O)(=O)N2CCC(C)CC2)CC1 [Compound 92] | –
31 | weak inhibitor | COc1ccc(Cl)cc1NC(=O)N1CC2(C1)CN(S(=O)(=O)N1CCC(C)CC1)C2 [Compound 90] | –
32 | mixed profile | COc1ccc(Cl)cc1NC(=O)CN1CCN(S(=O)(=O)N2CCN(C(=O)N3CCC(C(C)C)CC3)CC2)CC1 [Compound 53] | –

— paper PMC10230575 (Bioorganic & medicinal chemistry letters, 2022)
